# Results taken from patent US12281080B2, “Quinoline-based compounds and methods of inhibiting CDK8/19” (University of South Carolina, priority 2018, dated 2025).
# What was measured:
# FGR = FGR (Homo sapiens (Human), UniProt P09769); assay: KINOMEscan scanMAX; format: binding; settings: 2000 nM; read-out: Percent Control
# HCK = HCK (Homo sapiens (Human), UniProt P08631); assay: KINOMEscan scanMAX; format: binding; settings: 2000 nM; read-out: Percent Control
# [1] = target: RSK3(Kin.Dom.2-C-terminal) (RPS6KA2) (Homo sapiens (Human), UniProt Q15349); assay: KINOMEscan scanMAX; format: binding; settings: 2000 nM; read-out: Percent Control
# AKT3 = AKT3 (Homo sapiens (Human), UniProt Q9Y243); assay: KINOMEscan scanMAX; format: binding; settings: 2000 nM; read-out: Percent Control
# HASPIN = HASPIN (Homo sapiens (Human), UniProt Q8TF76); assay: DiscoverX Kd assay
# GRK2 (ADRBK1) = GRK2 (ADRBK1) (Homo sapiens (Human), UniProt P25098); assay: KINOMEscan scanMAX; format: binding; settings: 2000 nM; read-out: Percent Control
# Sequence of GRK2 (ADRBK1) (P25098 whole entry): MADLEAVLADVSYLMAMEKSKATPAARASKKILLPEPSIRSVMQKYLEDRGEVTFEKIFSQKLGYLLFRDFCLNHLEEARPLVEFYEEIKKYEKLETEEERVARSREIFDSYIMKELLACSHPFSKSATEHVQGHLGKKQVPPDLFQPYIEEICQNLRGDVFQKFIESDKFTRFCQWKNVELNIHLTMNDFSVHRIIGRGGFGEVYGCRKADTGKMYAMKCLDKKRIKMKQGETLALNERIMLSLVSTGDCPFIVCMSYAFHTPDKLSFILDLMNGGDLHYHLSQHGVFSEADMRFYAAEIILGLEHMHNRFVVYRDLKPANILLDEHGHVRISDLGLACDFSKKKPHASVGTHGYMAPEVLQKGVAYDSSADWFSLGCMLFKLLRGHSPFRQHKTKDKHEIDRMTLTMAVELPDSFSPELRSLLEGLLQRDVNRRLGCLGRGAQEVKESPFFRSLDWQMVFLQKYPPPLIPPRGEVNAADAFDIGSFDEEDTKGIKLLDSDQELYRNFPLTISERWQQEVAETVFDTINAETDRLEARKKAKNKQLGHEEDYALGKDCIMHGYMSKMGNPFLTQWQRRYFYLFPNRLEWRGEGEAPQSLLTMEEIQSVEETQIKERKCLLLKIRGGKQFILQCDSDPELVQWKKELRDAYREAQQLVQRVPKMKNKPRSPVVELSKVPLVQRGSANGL
# PIK4CB (PI4KB) = PIK4CB (PI4KB) (Homo sapiens (Human), UniProt Q9UBF8); assay: KINOMEscan scanMAX; format: binding; settings: 2000 nM; read-out: Percent Control
# Sequence of PIK4CB (PI4KB) (Q9UBF8 whole entry): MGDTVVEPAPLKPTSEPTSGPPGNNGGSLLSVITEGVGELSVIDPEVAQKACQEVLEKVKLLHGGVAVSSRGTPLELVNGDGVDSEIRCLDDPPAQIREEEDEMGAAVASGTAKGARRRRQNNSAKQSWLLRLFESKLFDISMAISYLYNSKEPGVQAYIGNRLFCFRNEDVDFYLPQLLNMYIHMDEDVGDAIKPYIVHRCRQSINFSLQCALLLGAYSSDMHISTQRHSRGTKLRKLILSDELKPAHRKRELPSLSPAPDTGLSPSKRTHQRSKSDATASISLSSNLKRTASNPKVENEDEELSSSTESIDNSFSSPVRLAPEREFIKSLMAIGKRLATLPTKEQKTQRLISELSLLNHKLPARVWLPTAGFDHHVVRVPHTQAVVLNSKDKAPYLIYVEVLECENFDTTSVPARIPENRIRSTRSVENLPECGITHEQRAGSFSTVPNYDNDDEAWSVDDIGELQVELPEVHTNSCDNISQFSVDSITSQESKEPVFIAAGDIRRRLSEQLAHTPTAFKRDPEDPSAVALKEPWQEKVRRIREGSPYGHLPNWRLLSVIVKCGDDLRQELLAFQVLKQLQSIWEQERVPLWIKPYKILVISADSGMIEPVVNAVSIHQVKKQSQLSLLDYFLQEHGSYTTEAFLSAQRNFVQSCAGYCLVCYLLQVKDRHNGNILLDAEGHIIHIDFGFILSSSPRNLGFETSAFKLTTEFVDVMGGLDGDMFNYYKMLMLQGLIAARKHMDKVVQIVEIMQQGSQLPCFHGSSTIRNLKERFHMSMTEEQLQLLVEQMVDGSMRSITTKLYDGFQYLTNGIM
# DCAMKL1 (DCLK1) = DCAMKL1 (DCLK1) (Homo sapiens (Human), UniProt O15075); assay: KINOMEscan scanMAX; format: binding; settings: 2000 nM; read-out: Percent Control
# TSSK3 = TSSK3 (Homo sapiens (Human), UniProt Q96PN8); assay: KINOMEscan scanMAX; format: binding; settings: 2000 nM; read-out: Percent Control
# INSR = INSR (Homo sapiens (Human), UniProt P06213); assay: KINOMEscan scanMAX; format: binding; settings: 2000 nM; read-out: Percent Control
# MKK7 (MAP2K7) = MKK7 (MAP2K7) (Homo sapiens (Human), UniProt O14733); assay: KINOMEscan scanMAX; format: binding; settings: 2000 nM; read-out: Percent Control
# ERBB3 = ERBB3 (Homo sapiens (Human), UniProt P21860); assay: KINOMEscan scanMAX; format: binding; settings: 2000 nM; read-out: Percent Control
# Sequence of ERBB3 (P21860 20-1342): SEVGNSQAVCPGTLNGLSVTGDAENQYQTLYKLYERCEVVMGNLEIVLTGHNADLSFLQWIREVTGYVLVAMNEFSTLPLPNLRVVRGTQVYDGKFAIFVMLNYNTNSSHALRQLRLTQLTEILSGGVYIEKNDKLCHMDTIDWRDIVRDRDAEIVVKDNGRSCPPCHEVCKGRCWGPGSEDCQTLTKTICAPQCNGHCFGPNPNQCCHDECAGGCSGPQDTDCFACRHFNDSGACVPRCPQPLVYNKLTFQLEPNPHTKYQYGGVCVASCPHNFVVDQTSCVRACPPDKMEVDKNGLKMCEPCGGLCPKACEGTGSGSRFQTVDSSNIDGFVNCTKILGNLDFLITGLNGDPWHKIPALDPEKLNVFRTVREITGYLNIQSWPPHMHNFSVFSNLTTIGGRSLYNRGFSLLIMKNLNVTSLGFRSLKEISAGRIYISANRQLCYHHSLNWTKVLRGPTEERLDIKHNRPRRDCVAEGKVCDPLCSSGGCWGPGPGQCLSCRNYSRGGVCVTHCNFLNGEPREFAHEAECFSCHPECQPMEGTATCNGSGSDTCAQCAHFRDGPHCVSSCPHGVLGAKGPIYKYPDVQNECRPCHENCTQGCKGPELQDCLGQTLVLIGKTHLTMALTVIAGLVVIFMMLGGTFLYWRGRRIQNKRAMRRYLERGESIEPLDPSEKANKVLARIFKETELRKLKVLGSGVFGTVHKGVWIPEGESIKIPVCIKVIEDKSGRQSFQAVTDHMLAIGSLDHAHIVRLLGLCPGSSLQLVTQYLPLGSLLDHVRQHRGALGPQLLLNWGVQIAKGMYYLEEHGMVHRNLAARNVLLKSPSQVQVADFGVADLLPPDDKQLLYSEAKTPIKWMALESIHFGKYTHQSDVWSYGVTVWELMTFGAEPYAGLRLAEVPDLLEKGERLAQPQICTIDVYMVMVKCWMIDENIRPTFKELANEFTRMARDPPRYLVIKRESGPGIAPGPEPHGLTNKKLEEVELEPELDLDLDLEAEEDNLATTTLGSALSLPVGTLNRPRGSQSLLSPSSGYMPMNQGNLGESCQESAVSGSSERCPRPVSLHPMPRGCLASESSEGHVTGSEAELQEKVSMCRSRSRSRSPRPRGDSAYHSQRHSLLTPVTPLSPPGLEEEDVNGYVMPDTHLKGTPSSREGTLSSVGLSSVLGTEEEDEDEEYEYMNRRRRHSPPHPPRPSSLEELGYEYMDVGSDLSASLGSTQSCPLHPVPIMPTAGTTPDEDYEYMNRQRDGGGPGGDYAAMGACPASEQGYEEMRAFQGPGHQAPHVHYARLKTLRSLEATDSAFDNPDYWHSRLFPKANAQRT
# CDK11 (CDK19) = CDK11 (CDK19) (Homo sapiens (Human), UniProt Q9BWU1); assay: KINOMEscan scanMAX; format: binding; settings: 2000 nM; read-out: Percent Control
# CDK3 = CDK3 (Homo sapiens (Human), UniProt Q00526); assay: KINOMEscan scanMAX; format: binding; settings: 2000 nM; read-out: Percent Control
# MET(Y1235D) = MET(Y1235D) (Homo sapiens (Human), UniProt P08581, Y1235D); assay: KINOMEscan scanMAX; format: binding; settings: 2000 nM; read-out: Percent Control
# YSK4 (MAP3K19) = YSK4 (MAP3K19) (Homo sapiens (Human), UniProt Q56UN5); assay: KINOMEscan scanMAX; format: binding; settings: 2000 nM; read-out: Percent Control
# CDK2 = CDK2 (Homo sapiens (Human), UniProt P24941); assay: KINOMEscan scanMAX; format: binding; settings: 2000 nM; read-out: Percent Control
# CAMK1 = CAMK1 (Homo sapiens (Human), UniProt Q14012); assay: KINOMEscan scanMAX; format: binding; settings: 2000 nM; read-out: Percent Control
# Sequence of CAMK1 (Q14012 whole entry): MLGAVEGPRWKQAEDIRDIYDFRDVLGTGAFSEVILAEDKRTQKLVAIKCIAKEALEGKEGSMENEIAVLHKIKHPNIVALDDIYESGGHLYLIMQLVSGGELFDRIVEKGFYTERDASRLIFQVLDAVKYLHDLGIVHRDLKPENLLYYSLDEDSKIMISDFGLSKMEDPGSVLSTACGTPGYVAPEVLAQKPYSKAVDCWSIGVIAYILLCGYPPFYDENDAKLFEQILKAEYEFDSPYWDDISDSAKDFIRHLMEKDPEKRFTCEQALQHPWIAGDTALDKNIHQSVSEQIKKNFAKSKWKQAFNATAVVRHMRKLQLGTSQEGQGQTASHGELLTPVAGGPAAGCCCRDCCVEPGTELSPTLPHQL
# PCTK2 (CDK17) = PCTK2 (CDK17) (Homo sapiens (Human), UniProt Q00537); assay: KINOMEscan scanMAX; format: binding; settings: 2000 nM; read-out: Percent Control
# FGFR2 = FGFR2 (Homo sapiens (Human), UniProt P21802); assay: KINOMEscan scanMAX; format: binding; settings: 2000 nM; read-out: Percent Control
# DMPK2 (CDC42BPG) = DMPK2 (CDC42BPG) (Homo sapiens (Human), UniProt Q6DT37); assay: KINOMEscan scanMAX; format: binding; settings: 2000 nM; read-out: Percent Control
# MARK2 = MARK2 (Homo sapiens (Human), UniProt Q7KZI7); assay: KINOMEscan scanMAX; format: binding; settings: 2000 nM; read-out: Percent Control
# PLK3 = PLK3 (Homo sapiens (Human), UniProt Q9H4B4); assay: KINOMEscan scanMAX; format: binding; settings: 2000 nM; read-out: Percent Control
# AURKA = AURKA (Homo sapiens (Human), UniProt O14965); assay: KINOMEscan scanMAX; format: binding; settings: 2000 nM; read-out: Percent Control
# RET(V804L) = RET(V804L) (Homo sapiens (Human), UniProt P07949, V804L); assay: KINOMEscan scanMAX; format: binding; settings: 2000 nM; read-out: Percent Control
# FGFR3 = FGFR3 (Homo sapiens (Human), UniProt P22607); assay: KINOMEscan scanMAX; format: binding; settings: 2000 nM; read-out: Percent Control
# GRK4 = GRK4 (Homo sapiens (Human), UniProt P32298); assay: KINOMEscan scanMAX; format: binding; settings: 2000 nM; read-out: Percent Control
# WNK2 = WNK2 (Homo sapiens (Human), UniProt Q9Y3S1); assay: KINOMEscan scanMAX; format: binding; settings: 2000 nM; read-out: Percent Control
# ABL2 = ABL2 (Homo sapiens (Human), UniProt P42684); assay: KINOMEscan scanMAX; format: binding; settings: 2000 nM; read-out: Percent Control
# KIT(V559D) = KIT(V559D) (Homo sapiens (Human), UniProt P10721, V559D); assay: KINOMEscan scanMAX; format: binding; settings: 2000 nM; read-out: Percent Control
# PRKR (EIF2AK2) = PRKR (EIF2AK2) (Homo sapiens (Human), UniProt P19525); assay: KINOMEscan scanMAX; format: binding; settings: 2000 nM; read-out: Percent Control
# SIK2 = SIK2 (Homo sapiens (Human), UniProt Q9H0K1); assay: KINOMEscan scanMAX; format: binding; settings: 2000 nM; read-out: Percent Control
# [2] = target: RSK2(Kin.Dom.1-N-terminal) (RPS6KA3) (Homo sapiens (Human), UniProt P51812); assay: KINOMEscan scanMAX; format: binding; settings: 2000 nM; read-out: Percent Control
# p38-alpha (MAPK14) = p38-alpha (MAPK14) (Homo sapiens (Human), UniProt Q16539); assay: KINOMEscan scanMAX; format: binding; settings: 2000 nM; read-out: Percent Control
# Sequence of p38-alpha (MAPK14) (Q16539 whole entry): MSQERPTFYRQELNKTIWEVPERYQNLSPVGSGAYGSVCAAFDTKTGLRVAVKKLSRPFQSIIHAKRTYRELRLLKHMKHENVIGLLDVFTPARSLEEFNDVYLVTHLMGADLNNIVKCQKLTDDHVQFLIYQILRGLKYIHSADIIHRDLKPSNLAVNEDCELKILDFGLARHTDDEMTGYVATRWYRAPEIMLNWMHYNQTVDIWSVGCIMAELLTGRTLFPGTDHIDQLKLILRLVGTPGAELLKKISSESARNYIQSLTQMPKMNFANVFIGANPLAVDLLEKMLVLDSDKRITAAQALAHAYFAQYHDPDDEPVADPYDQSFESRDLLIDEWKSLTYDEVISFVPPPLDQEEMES
# TRPM6 = TRPM6 (Homo sapiens (Human), UniProt Q9BX84); assay: KINOMEscan scanMAX; format: binding; settings: 2000 nM; read-out: Percent Control
# MUSK = MUSK (Homo sapiens (Human), UniProt O15146); assay: KINOMEscan scanMAX; format: binding; settings: 2000 nM; read-out: Percent Control
# INSRR = INSRR (Homo sapiens (Human), UniProt P14616); assay: KINOMEscan scanMAX; format: binding; settings: 2000 nM; read-out: Percent Control
# Sequence of INSRR (P14616 27-1297): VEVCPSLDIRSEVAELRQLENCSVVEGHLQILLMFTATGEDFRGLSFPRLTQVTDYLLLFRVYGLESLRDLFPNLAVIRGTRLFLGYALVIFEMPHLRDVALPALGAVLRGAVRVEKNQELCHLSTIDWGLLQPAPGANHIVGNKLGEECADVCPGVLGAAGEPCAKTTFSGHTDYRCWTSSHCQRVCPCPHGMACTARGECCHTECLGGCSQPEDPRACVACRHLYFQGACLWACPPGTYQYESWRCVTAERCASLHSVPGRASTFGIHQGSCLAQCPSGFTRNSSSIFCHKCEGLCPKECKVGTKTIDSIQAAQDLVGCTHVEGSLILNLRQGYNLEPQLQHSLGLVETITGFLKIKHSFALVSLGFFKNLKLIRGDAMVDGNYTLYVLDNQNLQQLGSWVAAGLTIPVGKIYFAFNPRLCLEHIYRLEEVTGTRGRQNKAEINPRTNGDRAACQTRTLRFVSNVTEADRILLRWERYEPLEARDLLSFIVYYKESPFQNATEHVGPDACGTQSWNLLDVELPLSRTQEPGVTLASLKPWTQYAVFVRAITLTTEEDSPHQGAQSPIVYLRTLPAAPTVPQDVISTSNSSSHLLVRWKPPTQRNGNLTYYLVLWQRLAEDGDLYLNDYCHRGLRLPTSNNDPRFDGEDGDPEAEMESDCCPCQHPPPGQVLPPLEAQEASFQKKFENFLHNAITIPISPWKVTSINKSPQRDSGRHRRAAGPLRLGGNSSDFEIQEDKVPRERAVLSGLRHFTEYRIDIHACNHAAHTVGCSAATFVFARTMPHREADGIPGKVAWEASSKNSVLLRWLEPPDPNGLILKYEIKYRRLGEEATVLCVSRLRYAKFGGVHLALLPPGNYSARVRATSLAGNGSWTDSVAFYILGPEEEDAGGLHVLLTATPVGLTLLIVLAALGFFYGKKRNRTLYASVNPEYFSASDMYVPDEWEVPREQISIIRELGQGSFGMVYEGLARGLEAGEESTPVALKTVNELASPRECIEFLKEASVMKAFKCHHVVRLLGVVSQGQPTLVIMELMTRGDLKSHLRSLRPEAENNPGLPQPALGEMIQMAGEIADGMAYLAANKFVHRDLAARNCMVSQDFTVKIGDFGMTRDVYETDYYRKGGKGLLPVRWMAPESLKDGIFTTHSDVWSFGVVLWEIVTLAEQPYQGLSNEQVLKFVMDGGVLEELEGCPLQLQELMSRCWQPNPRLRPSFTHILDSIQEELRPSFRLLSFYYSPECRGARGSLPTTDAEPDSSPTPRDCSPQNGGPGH
# PAK1 = PAK1 (Homo sapiens (Human), UniProt Q13153); assay: KINOMEscan scanMAX; format: binding; settings: 2000 nM; read-out: Percent Control
# AKT1 = AKT1 (Homo sapiens (Human), UniProt P31749); assay: KINOMEscan scanMAX; format: binding; settings: 2000 nM; read-out: Percent Control
# STK33 = STK33 (Homo sapiens (Human), UniProt Q9BYT3); assay: KINOMEscan scanMAX; format: binding; settings: 2000 nM; read-out: Percent Control
smiles,measurement,setting,value
"CN1CCN(C(=O)c2ccc3cc(CCNc4ccnc5ccc(C#N)cc45)ccc3c2)CC1 [compound 6148, 4-((2-(6-(4-methylpiperazine-1-carbonyl)naphthalen-2-yl)ethyl)amino)quinoline-6-carbonitrile]",remaining binding at 2 µM,FGR,90%
same,remaining binding at 2 µM,HCK,96%
same,remaining binding at 2 µM,[1],91%
same,remaining binding at 2 µM,AKT3,100%
same,Kd,HASPIN,1000 nM
same,remaining binding at 2 µM,GRK2 (ADRBK1),63%
same,remaining binding at 2 µM,PIK4CB (PI4KB),51%
same,remaining binding at 2 µM,DCAMKL1 (DCLK1),63%
same,remaining binding at 2 µM,TSSK3,81%
same,remaining binding at 2 µM,INSR,93%
same,remaining binding at 2 µM,MKK7 (MAP2K7),75%
same,remaining binding at 2 µM,ERBB3,76%
same,remaining binding at 2 µM,CDK11 (CDK19),13%
same,remaining binding at 2 µM,CDK3,86%
same,remaining binding at 2 µM,MET(Y1235D),78%
same,remaining binding at 2 µM,YSK4 (MAP3K19),50%
same,remaining binding at 2 µM,CDK2,95%
same,remaining binding at 2 µM,CAMK1,84%
same,remaining binding at 2 µM,PCTK2 (CDK17),98%
same,remaining binding at 2 µM,FGFR2,98%
same,remaining binding at 2 µM,DMPK2 (CDC42BPG),83%
same,remaining binding at 2 µM,MARK2,100%
same,remaining binding at 2 µM,PLK3,80%
same,remaining binding at 2 µM,AURKA,88%
same,remaining binding at 2 µM,RET(V804L),88%
same,remaining binding at 2 µM,FGFR3,100%
same,remaining binding at 2 µM,GRK4,100%
same,remaining binding at 2 µM,WNK2,59%
same,remaining binding at 2 µM,ABL2,93%
same,remaining binding at 2 µM,KIT(V559D),95%
same,remaining binding at 2 µM,PRKR (EIF2AK2),88%
same,remaining binding at 2 µM,SIK2,100%
same,remaining binding at 2 µM,[2],62%
same,remaining binding at 2 µM,p38-alpha (MAPK14),84%
same,remaining binding at 2 µM,TRPM6,88%
same,remaining binding at 2 µM,MUSK,90%
same,remaining binding at 2 µM,INSRR,88%
same,remaining binding at 2 µM,PAK1,92%
same,remaining binding at 2 µM,AKT1,89%
same,remaining binding at 2 µM,STK33,93%
